# From US11524951B2, “2-(2,4,5-substituted-anilino)pyrimidine compounds” (AstraZeneca AB, priority 2011, dated 2022)
# How the values were obtained:
# Assay type in all cases: cell-based
# Exon19 deletion EGFR = target: T1, Exon19 deletion EGFR (Homo sapiens, UniProt P00533, DEL746-750); experiment: Exon19 deletion EGFR (activating single mutant) cellular phosphorylation assay; conditions: PC9 human lung cells (Exon 19 deletion EGFR); endogenous p-EGFR in cell lysates by ELISA; 2 h with compound; read-out: Assay 1 (IC50)
# T1 construct: Assays to measure cellular phosphorylation of endogenous p-EGFR in cell lysates; endogenous in cells; host or cells: PC9 (human lung cell line)
# T1 sequence (P00533 with tags, fused parts or gaps DEL746-750): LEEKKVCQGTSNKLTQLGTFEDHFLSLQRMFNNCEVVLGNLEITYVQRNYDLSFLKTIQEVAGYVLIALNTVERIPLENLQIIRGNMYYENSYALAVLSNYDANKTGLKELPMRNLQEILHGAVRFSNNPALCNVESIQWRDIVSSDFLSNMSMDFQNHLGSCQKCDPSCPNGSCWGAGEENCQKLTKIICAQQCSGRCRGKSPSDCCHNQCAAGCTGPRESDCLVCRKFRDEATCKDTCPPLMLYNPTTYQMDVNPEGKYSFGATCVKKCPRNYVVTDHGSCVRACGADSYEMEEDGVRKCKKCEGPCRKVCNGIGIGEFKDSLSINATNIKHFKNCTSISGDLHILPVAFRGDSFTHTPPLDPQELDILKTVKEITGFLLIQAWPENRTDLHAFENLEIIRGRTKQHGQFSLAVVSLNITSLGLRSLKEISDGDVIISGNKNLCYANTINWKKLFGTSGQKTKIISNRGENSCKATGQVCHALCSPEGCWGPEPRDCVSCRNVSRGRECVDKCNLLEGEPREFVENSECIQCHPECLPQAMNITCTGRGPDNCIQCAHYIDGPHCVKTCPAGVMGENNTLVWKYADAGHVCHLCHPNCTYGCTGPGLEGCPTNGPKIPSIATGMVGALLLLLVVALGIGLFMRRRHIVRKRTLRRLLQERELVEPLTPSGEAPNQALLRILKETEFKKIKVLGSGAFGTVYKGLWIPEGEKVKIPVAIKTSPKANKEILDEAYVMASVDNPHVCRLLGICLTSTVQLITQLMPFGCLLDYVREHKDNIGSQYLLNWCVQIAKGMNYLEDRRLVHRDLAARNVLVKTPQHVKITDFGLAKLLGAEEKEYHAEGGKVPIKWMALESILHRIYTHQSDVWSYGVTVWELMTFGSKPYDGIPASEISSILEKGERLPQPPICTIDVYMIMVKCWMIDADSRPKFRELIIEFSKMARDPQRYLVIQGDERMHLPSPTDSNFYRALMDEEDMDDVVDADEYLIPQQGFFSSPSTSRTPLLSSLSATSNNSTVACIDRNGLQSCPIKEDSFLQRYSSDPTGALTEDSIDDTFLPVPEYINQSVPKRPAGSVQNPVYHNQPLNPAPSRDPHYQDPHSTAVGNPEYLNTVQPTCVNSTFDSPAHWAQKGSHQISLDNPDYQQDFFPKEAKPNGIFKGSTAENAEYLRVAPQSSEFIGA
# Protocol: Assay 1: Exon19 Deletion EGFR (Activating Single Mutant) Cellular Phosphorylation Assay
# The human lung cell line PC9 (Exon 19 deletion EGFR) were obtained from the American type Culture Collection. […] Cells were grown in a humidified incubator at 37° C. with 5% CO2. Assays to measure cellular phosphorylation of endogenous p-EGFR in cell lysates were carried out according to the protocol described in the R&D Systems DuoSet IC Human Phospho-EGF R ELISA (R&D Systems catalogue number #DYC1095). 40 μL of cells were seeded (10000 cells/well) in growth medium in Corning black, clear-bottomed 384-well plates and incubated at 37° C. with 5% CO2 overnight. […] Plates were incubated for a further 2 h, then following aspiration of medium, 40 μL 1× lysis buffer was added to each well. Greiner black high bind 384-well plates were coated with capture antibody and then blocked with 3% BSA. Following removal of block, […], of lysate were transferred to the Greiner black high bind 384-well plates and incubated for 2 hours. Following aspiration and washing of the plates with PBS, 20 μL of detection antibody were added and incubated for 2 hours. […] The data obtained with each compound was exported into a suitable software package (such as Origin) to perform curve fitting analysis.
# L858R/T790M EGFR = target: T2, L858R/T790M EGFR (Homo sapiens, UniProt P00533, L858R/T790M); experiment: L858R/T790M EGFR (double mutant) cellular phosphorylation assay; conditions: NCI-H1975 human lung cells; endogenous p-EGFR in cell lysates by ELISA; 2 h with compound
# T2 construct: Assays to measure cellular phosphorylation of endogenous p-EGFR in cell lysates; endogenous in cells; host or cells: NCI-H1975 (human lung cell line)
# T2 sequence (P00533 25-1210 T790M/L858R): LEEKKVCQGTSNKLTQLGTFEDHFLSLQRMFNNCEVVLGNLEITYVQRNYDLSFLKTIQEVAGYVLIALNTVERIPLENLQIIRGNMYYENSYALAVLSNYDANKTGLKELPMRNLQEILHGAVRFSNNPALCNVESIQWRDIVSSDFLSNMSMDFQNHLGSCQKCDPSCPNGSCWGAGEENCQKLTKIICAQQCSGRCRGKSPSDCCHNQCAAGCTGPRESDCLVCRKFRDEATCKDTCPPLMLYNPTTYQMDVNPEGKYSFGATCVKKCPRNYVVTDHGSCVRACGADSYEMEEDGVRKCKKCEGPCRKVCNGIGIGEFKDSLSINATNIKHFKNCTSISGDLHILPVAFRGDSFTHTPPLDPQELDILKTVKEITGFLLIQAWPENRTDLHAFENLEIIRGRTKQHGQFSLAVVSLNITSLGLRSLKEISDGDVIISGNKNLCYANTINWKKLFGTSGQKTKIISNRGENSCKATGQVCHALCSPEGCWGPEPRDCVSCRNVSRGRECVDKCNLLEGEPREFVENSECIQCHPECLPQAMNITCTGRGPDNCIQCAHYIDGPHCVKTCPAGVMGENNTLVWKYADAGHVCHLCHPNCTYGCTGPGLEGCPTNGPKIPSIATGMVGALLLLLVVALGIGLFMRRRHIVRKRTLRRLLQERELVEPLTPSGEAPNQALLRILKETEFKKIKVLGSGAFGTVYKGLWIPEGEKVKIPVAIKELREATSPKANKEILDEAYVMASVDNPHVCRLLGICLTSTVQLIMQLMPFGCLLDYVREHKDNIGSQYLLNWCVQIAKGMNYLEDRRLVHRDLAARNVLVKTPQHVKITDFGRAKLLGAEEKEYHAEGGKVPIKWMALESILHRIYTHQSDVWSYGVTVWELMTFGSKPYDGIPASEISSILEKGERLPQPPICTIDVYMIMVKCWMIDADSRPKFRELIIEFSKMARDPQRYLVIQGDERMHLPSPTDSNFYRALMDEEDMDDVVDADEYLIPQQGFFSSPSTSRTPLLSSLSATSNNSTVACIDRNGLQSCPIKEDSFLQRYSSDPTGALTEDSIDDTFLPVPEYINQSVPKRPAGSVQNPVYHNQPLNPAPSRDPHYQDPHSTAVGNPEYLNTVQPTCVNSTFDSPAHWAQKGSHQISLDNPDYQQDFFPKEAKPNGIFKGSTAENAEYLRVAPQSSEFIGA
# Protocol: Assay 2: L858R/T790M EGFR (Double Mutant) Cellular Phosphorylation Assay
# The human lung cell lines NCI-H1975 were obtained from the American type Culture Collection. […] Cells were grown in a humidified incubator at 37° C. with 5% CO2.
# Assays to measure cellular phosphorylation of endogenous p-EGFR in cell lysates were carried out according to the protocol described in the R&D Systems DuoSet IC Human Phospho-EGF R ELISA (R&D Systems catalogue number #DYC1095).
# 40 μL of cells were seeded (10000 cells/well) in growth medium in Corning black, clear-bottomed 384-well plates and incubated at 37° C. with 5% CO2 overnight. […] Plates were incubated for a further 2 h and following aspiration of medium, 40 μL 1× lysis buffer was added to each well. Greiner black high bind 384-well plates were coated with capture antibody and then blocked with 3% BSA. Following removal of block, 15 μL of lysate were transferred to the Greiner black high bind 384-well plates and incubated for 2 hours. Following aspiration and washing of the plates with PBS, 20 μL of detection antibody were added and incubated for 2 hours. […] 20 μL QuantaBlu stop solution were added to plates and fluorescence read on an Envision plate reader using
# The data obtained with each compound was exported into a suitable software package (such as Origin) to perform curve fitting analysis.
# Wild-type EGFR = target: T3, Wild-type EGFR (Homo sapiens, UniProt P00533); experiment: Wild-type EGFR cellular phosphorylation assay; conditions: LoVo human colon cells; endogenous p-EGFR in cell lysates by ELISA; 2 h with compound, then stimulated 100 ng/ml for 10 minutes; read-out: Assay 3 (IC50)
# T3 construct: Assays to measure cellular phosphorylation of endogenous p-EGFR in cell lysates; endogenous in cells; host or cells: LoVo (human colon cell line)
# T3 sequence (P00533 25-1210): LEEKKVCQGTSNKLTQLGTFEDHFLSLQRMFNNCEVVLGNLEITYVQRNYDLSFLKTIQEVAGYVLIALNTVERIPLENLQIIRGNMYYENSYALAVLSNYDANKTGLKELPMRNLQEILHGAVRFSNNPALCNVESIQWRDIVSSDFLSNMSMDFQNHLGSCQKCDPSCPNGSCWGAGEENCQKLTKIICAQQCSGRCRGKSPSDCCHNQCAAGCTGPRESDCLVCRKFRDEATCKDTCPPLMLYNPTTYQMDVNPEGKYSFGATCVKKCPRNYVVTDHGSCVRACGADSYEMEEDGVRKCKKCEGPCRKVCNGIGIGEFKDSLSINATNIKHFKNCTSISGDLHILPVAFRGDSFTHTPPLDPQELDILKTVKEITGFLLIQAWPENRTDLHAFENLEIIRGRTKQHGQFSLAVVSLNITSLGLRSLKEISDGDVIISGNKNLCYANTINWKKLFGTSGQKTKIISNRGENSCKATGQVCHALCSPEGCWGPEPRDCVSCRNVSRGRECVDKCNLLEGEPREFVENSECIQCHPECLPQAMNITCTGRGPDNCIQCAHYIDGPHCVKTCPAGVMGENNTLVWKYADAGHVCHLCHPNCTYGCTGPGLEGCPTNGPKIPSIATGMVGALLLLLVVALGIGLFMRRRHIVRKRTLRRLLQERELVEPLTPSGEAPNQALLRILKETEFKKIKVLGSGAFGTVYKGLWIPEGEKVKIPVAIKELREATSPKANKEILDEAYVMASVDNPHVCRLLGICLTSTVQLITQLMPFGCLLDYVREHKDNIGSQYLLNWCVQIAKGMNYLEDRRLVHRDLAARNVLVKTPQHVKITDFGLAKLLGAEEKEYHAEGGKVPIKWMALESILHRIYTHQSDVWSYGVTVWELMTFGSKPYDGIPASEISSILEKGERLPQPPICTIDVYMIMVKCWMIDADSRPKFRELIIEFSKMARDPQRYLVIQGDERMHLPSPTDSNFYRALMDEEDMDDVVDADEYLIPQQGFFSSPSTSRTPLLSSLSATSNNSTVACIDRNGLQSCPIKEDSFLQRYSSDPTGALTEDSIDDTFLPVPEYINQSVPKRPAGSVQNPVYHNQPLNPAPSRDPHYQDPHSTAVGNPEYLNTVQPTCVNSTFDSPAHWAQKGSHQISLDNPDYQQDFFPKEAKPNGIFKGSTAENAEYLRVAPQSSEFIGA
# Protocol: Assay 3: Wild-Type EGFR Cellular Phosphorylation Assay
# The human colon cell line LoVo were obtained from the American type Culture Collection. […] Cells were grown in a humidified incubator at 37° C. with 5% CO2. Assays to measure cellular phosphorylation of endogenous p-EGFR in cell lysates were carried out according to the protocol described in the R&D Systems DuoSet IC Human Phospho-EGF R ELISA (R&D Systems catalogue number #DYC1095). 40 μL of cells were seeded (15000 cells/well) in growth medium in Corning black, clear-bottomed 384-well plates and incubated at 37° C. with 5% CO2 overnight. […] Plates were incubated for a further 2 h then stimulated with 100 ng/ml for 10 minutes and following aspiration of medium, 40 μL 1× lysis buffer was added to each well. Greiner black high bind 384-well plates were coated with capture antibody and then blocked with 3% BSA. […] Following aspiration and washing of the plates with PBS, 20 μL of detection antibody were added and incubated for 2 hours. […] The data obtained with each compound was exported into a suitable software package (such as Origin) to perform curve fitting analysis.
Structure (SMILES),IC50 (Exon19 deletion EGFR) [nM],IC50 (L858R/T790M EGFR) [nM],IC50 (Wild-type EGFR) [nM]
"C=CC(=O)Nc1cc(Nc2nccc(-c3cnn4ccccc34)n2)c(OC)cc1C1=CCN(C)CC1 [Example 51, N-{4-Methoxy-2-[1-methyl-3,6-dihydro-2H-pyridin-4-yl]-5-[(4-pyrazolo[1,5-a]pyridin-3-ylpyrimidin-2-yl)amino]phenyl}prop-2-enamide]",13,7.71,462
"C=CC(=O)Nc1cc(Nc2nccc(-c3cnn4c3CCCC4)n2)c(OC)cc1N1CC[C@@H]2CN(C)C[C@@H]21 [Example 43, N-(2-{(3aR,6aR)-5-Methyl-2,3,3a,4,6,6a-hexahydropyrrolo[3,4-b]pyrrol-1-yl}-4-methoxy-5-{[4-(4,5,6,7-tetrahydropyrazolo[1,5-a]pyridin-3-yl)pyrimidin-2-yl]amino}phenyl)prop-2-enamide]",18.2,10.6,1340
"C=CC(=O)Nc1cc(Nc2ncc(C#N)c(-c3cn(C)c4ccccc34)n2)c(OC)cc1N1CC[C@@H](N(C)C)C1 [Example 22, N-(5-{[5-Cyano-4-(1-methylindol-3-yl)pyrimidin-2-yl]amino}-2-{(3R)-3-dimethylaminopyrrolidin-1-yl}-4-methoxyphenyl)prop-2-enamide]",2.14,1.52,73.4
"C=CC(=O)Nc1cc(Nc2nccc(-c3cn(C)c4ccccc34)n2)c(OC)cc1C1=CCN(C)CC1 [Example 48, N-(4-Methoxy-2-{1-methyl-3,6-dihydro-2H-pyridin-4-yl}-5-{[4-(1-methylindol-3-yl)pyrimidin-2-yl]amino}phenyl)prop-2-enamide]",39.9,31,1580
"C=CC(=O)Nc1cc(Nc2ncc(C#N)c(-c3cnn4ccccc34)n2)c(OC)cc1N1CC[C@@H](N(C)C)C1 [Example 38, N-{5-[(5-Cyano-4-pyrazolo[1,5-a]pyridin-3-ylpyrimidin-2-yl)amino]-2-[(3R)-3-dimethylaminopyrrolidin-1-yl]-4-methoxyphenyl}prop-2-enamide]",5.09,4.41,538
"C=CC(=O)Nc1cc(Nc2nccc(-c3cn(C)c4ccccc34)n2)c(OC)cc1N1CC2(CCCN2C)C1 [Example 49, N-(4-Methoxy-2-{8-methyl-2,8-diazaspiro[3.4]octan-2-yl}-5-{[4-(1-methylindol-3-yl)pyrimidin-2-yl]amino}phenyl)prop-2-enamide]",74.2,51,3090
"C=CC(=O)Nc1cc(Nc2ncc(Cl)c(-c3cn(C)c4ccccc34)n2)c(OC)cc1N1CC(N(C)C)C1 [Example 34, N-(5-{[5-Chloro-4-(1-methylindol-3-yl)pyrimidin-2-yl]amino}-2-{3-dimethylaminoazetidin-1-yl}-4-methoxyphenyl)prop-2-enamide]",9.04,3.77,153
"C=CC(=O)Nc1cc(Nc2ncc(Cl)c(-c3c[nH]c4ccccc34)n2)c(OC)cc1N1CC(N(C)C)C1 [Example 37, N-(5-{[5-Chloro-4-(1H-indol-3-yl)pyrimidin-2-yl]amino}-2-{3-dimethylaminoazetidin-1-yl}-4-methoxyphenyl)prop-2-enamide]",2.11,1.81,48.6
"C=CC(=O)Nc1cc(Nc2nccc(-c3c[nH]c4ccccc34)n2)c(OC)cc1N(C)CCN(C)C [Example 59, N-(2-[2-Dimethylaminoethyl-methylamino]-5-{[4-(1H-indol-3-yl)pyrimidin-2-yl]amino}-4-methoxyphenyl)prop-2-enamide]",2.27,3.02,28.2
"C=CC(=O)Nc1cc(Nc2ncc(Cl)c(-c3cnn4ccccc34)n2)c(OC)cc1N(C)CCN1CCOCC1 [Example 31, N-{5-[(5-Chloro-4-pyrazolo[1,5-a]pyridin-3-ylpyrimidin-2-yl)amino]-4-methoxy-2-[methyl-(2-morpholin-4-ylethyl)amino]phenyl}prop-2-enamide]",37.5,7.34,2510
"C=CC(=O)Nc1cc(Nc2ncc(Cl)c(-c3cnn4ccccc34)n2)c(OC)cc1N(C)CCN1CCN(C)CC1 [Example 32, N-(5-{[5-Chloro-4-pyrazolo[1,5-a]pyridin-3-ylpyrimidin-2-yl]amino}-4-methoxy-2-{methyl-[2-(4-methylpiperazin-1-yl)ethyl]amino}phenyl)prop-2-enamide]",138,23.8,10500
"C=CC(=O)Nc1cc(Nc2ncc(C)c(-c3c[nH]c4ccccc34)n2)c(OC)cc1N1CCN(C)CC1 [Example 3, N-(5-{[4-(1H-Indol-3-yl)-5-methylpyrimidin-2-yl]amino}-4-methoxy-2-[4-methylpiperazin-1-yl]phenyl)prop-2-enamide]",10.5,15.5,522
"C=CC(=O)Nc1cc(Nc2nccc(-c3cn(C)c4ccccc34)n2)c(OC)cc1N(C)CCNC [Example 60, N-(4-Methoxy-5-{[4-(1-methylindol-3-yl)pyrimidin-2-yl]amino}-2-[methyl-(2-methylaminoethyl)amino]phenyl)prop-2-enamide]",14.6,48.9,624
"C=CC(=O)Nc1cc(Nc2ncc(Cl)c(-c3c[nH]c4ccccc34)n2)c(OC)cc1N(C)CCN(C)C [Example 25, N-(5-{[5-Chloro-4-(1H-indol-3-yl)pyrimidin-2-yl]amino}-2-{2-dimethyl-aminoethyl-methylamino}-4-methoxyphenyl)prop-2-enamide]",0.581,0.238,10.9
"C=CC(=O)Nc1cc(Nc2ncc(C#N)c(-c3cnn4ccccc34)n2)c(OC)cc1N1CC(N(C)C)C1 [Example 40, N-{5-[(5-Cyano-4-pyrazolo[1,5-a]pyridin-3-ylpyrimidin-2-yl)amino]-2-[3-dimethylaminoazetidin-1-yl]-4-methoxyphenyl}prop-2-enamide]",12.4,14.8,> 30000
"C=CC(=O)Nc1cc(Nc2ncc(C)c(-c3cn(C)c4ccccc34)n2)c(OC)cc1N1CC(N(C)C)C1 [Example 35, N-(2-{3-Dimethylaminoazetidin-1-yl}-4-methoxy-5-{[5-methyl-4-(1-methylindol-3-yl)pyrimidin-2-yl]amino}phenyl)prop-2-enamide]",8.57,6.77,262
"C=CC(=O)Nc1cc(Nc2ncc(Cl)c(-c3c[nH]c4ccccc34)n2)c(OC)cc1N1CCN(C)CC1 [Example 17, N-(5-{[5-Chloro-4-(1H-indol-3-yl)pyrimidin-2-yl]amino}-4-methoxy-2-{4-methylpiperazin-1-yl}phenyl)prop-2-enamide]",23.4,5.64,772
"C=CC(=O)Nc1cc(Nc2ncc(C#N)c(-c3cn(C)c4ccccc34)n2)c(OC)cc1N(C)CCN(C)C [Example 29, N-(5-{[5-Cyano-4-(1-methylindol-3-yl)pyrimidin-2-yl]amino}-2-{2-dimethylaminoethyl-methylamino}-4-methoxyphenyl)prop-2-enamide]",1.23,0.885,46.5
